Reference: patent US20260132129A1 (Genesis Therapeutics, Inc., priority 2022, published 2026)

Biological target: T1, PI3Kα H1047R (T47D cells) (Homo sapiens, UniProt P42336, H1047R)
T1 construct: endogenous in cells; host or cells: T47D cells
Assay: PI3Kα cellular assay: pAKT HTRF in T47D cells after EGF stimulation
Assay type: cell-based
Details: for IC50: T47D cells (PI3Kα H1047R), pAKT S473 HTRF, EGF stimulation; for T47D pAKT S473 HTRF IC50 (H1047R): T47D (H1047R) selectivity over SKBR3 (WT): selectivity of T47D (H1047R) over SKBR3 (WT) pAKT IC50
In short: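 T47D cells (PIK3CA H1047R) serum-starved 16 h, then treated 1 h at 37 °C with compound (10,000 nM top, 3-fold steps to 0.5 nM). After 10 min stimulation with 20 ng/mL EGF, cells were lysed and pAKT measured by HTRF.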

T1 sequence (P42336 whole entry H1047R): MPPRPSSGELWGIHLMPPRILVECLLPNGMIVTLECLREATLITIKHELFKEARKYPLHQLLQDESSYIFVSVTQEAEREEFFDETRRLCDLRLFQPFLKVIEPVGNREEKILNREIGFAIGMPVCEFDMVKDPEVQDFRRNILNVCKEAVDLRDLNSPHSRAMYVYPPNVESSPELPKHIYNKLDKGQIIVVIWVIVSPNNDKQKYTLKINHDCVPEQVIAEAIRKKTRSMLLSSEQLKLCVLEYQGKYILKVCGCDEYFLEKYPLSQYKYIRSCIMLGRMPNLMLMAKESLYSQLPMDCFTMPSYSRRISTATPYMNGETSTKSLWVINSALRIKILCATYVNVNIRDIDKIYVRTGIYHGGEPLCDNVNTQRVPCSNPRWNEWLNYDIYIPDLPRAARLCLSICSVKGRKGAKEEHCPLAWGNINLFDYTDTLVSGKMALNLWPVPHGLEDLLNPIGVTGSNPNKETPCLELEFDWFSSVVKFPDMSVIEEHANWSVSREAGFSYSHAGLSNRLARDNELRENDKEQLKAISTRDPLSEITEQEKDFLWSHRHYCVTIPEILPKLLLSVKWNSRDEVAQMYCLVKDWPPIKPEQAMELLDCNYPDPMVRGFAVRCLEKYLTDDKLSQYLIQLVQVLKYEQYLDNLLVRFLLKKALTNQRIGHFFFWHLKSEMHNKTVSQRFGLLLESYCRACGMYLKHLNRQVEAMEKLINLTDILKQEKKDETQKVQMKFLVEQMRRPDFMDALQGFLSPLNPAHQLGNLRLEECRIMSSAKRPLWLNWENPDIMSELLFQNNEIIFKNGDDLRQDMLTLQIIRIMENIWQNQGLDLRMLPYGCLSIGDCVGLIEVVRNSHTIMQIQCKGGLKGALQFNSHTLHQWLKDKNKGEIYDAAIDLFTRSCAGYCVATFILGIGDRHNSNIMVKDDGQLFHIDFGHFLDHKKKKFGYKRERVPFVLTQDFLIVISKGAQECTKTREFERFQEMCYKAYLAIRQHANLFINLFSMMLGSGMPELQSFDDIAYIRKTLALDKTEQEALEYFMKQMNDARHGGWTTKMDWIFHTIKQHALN
T1 sequence (P27986 whole entry partner): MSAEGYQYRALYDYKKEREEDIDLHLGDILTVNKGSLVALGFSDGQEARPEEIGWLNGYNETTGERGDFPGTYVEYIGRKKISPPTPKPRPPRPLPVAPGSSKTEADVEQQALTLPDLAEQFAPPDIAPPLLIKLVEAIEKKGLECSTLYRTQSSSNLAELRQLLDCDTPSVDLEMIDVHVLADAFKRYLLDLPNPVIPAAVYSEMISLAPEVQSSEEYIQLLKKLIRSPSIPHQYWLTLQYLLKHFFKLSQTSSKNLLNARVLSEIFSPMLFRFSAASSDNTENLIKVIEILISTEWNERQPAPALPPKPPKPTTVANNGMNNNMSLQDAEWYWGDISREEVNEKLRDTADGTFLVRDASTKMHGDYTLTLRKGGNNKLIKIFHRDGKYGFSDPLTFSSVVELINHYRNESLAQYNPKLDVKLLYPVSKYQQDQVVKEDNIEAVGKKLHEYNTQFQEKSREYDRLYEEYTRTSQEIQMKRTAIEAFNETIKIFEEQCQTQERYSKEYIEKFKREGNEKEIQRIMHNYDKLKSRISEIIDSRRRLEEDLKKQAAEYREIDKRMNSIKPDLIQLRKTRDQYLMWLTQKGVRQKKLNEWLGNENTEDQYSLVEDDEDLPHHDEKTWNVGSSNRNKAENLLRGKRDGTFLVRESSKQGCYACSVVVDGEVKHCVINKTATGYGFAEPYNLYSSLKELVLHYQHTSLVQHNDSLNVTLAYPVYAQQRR

| SMILES | IC50 [nM] | T47D pAKT S473 HTRF IC50 (H1047R): T47D (H1047R) selectivity over SKBR3 (WT) |
| --- | --- | --- |
| Cc1cc([C@H](C)Nc2cccc3c2OCC(=O)N3)c2nc(N3CCOCC3)cc(=O)n2c1 [Compound 686] | > 2000 | C (C denotes ≤5-fold) |
| Cc1cc([C@H](C)Nc2cccc3c2CCC(=O)N3)c2nc(N3CCOCC3)cc(=O)n2c1 [Compound 688] | > 2000 | C (C denotes ≤5-fold) |
| Cc1cc(C(C)Nc2ccccc2C(=O)O)c2nc(-c3ccc(F)cc3)c(C)c(=O)n2c1 (centres unmarked) [Compound 691, 2-((1-(2-(4-fluorophenyl)-3,7-dimethyl-4-oxo-4H-pyrido[1,2-a]pyrimidin-9-yl)ethyl)amino)benzoic acid] | < 100 | A (A denotes >20-fold) |
| Cc1cc(C(C)Nc2ccccc2C(=O)O)c2nc(-c3ccc4c(c3)c(C)nn4C)cc(=O)n2c1 (centres unmarked) [Compound 695] |  | A (A denotes >20-fold) |
| Cc1cc([C@H](C)Nc2ccccc2C(=O)O)c2nc(-c3ccc4c(c3)c(C)nn4C)cc(=O)n2c1 [Compound 697] |  | C (C denotes ≤5-fold) |
| Cc1cc(C(C)Nc2ccccc2-c2ccnnc2)c2nc(N3CC(C)OC(C)C3)cc(=O)n2c1 (centres unmarked) [Compound 698] |  | C (C denotes ≤5-fold) |
| Cc1cc([C@@H](C)Nc2ccccc2-c2ccnnc2)c2nc(N3CC(C)OC(C)C3)cc(=O)n2c1 (some centres unmarked) [Compound 699] |  | C (C denotes ≤5-fold) |
| Cc1cc([C@H](C)Nc2ccccc2-c2ccnnc2)c2nc(N3C[C@@H](C)O[C@@H](C)C3)cc(=O)n2c1 [Compound 700] |  | A (A denotes >20-fold) |
| Cc1cc(C(C)Nc2ccccc2C(=O)O)c2nc(-c3ccc4c(c(N)nn4C)c3C)cc(=O)n2c1 (centres unmarked) [Compound 701] | > 2000 | C (C denotes ≤5-fold) |
| Cc1cc([C@@H](C)Nc2ccccc2C(=O)O)c2nc(-c3ccc4c(c(N)nn4C)c3C)cc(=O)n2c1 [Compound 702] | 500 to 2000 | B (B denotes 20-fold≥value>5-fold) |
| Cc1cc([C@H](C)Nc2ccccc2C(=O)O)c2nc(-c3ccc4c(c(N)nn4C)c3C)cc(=O)n2c1 [Compound 703] | > 2000 | C (C denotes ≤5-fold) |
| Cc1cc([C@@H](C)Nc2ccccc2C(=O)O)c2nc(-c3cc4c(N)nn(C)c4cc3C)cc(=O)n2c1 [Compound 704] | > 2000 | C (C denotes ≤5-fold) |
| Cc1cc([C@H](C)Nc2ccccc2C(=O)O)c2nc(-c3cc4c(N)nn(C)c4cc3C)cc(=O)n2c1 [Compound 705] | > 2000 | C (C denotes ≤5-fold) |
| Cc1cc(C(C)Nc2ccccc2C(=O)O)c2nc(-c3ccc4c(c(N)nn4C)c3C)c(C)c(=O)n2c1 (centres unmarked) [Compound 706] | 500 to 2000 | B (B denotes 20-fold≥value>5-fold) |
| Cc1cc([C@H](C)Nc2ccccc2C(=O)O)c2nc(N3C[C@@H](C)C(F)(F)[C@@H](C)C3)cc(=O)n2c1 [Compound 712, 2-(((S)-1-(2-((3S,5R)-4,4-difluoro-3,5-dimethylpiperidin-1-yl)-7-methyl-4-oxo-4H-pyrido[1,2-a]pyrimidin-9-yl)ethyl)amino)benzoic acid] | > 2000 | C (C denotes ≤5-fold) |
| Cc1cc([C@H](C)Nc2cccc3c2C(=O)NCC3)c2nc(N3CCOCC3)cc(=O)n2c1 [Compound 714] |  | C (C denotes ≤5-fold) |
| Cc1cc([C@@H](C)Nc2ccccc2-c2ccnnc2)c2nc(C3Cc4ccccc4C3)cc(=O)n2c1 [Compound 718] |  | C (C denotes ≤5-fold) |
| Cc1cc(C(C)Nc2ccccc2C(=O)O)c2nc(-c3ccc4c(c(N)nn4C)c3C)c(C)c(=O)n2c1 (centres unmarked) [Compound 720] | 500 to 2000 | B (B denotes 20-fold≥value>5-fold) |
| Cc1cc(C(C)Nc2ccccc2C(=O)O)c2nc(-c3ccc(F)cc3)c(C)c(=O)n2c1 (centres unmarked) [Compound 721] | 100 to 500 |  |
| CCn1nc(N)c2cc(-c3cc(=O)n4cc(C)cc([C@@H](C)Nc5ccccc5C(=O)O)c4n3)ccc21 [Compound 722] | < 100 | A (A denotes >20-fold) |
| CCn1nc(N)c2c(C)c(-c3cc(=O)n4cc(C)cc([C@H](C)Nc5ccccc5C(=O)O)c4n3)ccc21 [Compound 723] | > 2000 | C (C denotes ≤5-fold) |

| SMILES | IC50 [nM] | T47D pAKT S473 HTRF IC50 (H1047R): T47D (H1047R) selectivity over SKBR3 (WT) |
| --- | --- | --- |
| Cc1cc(C(C)Nc2ccccc2C(=O)O)c2nc(-c3ccc4c(c3)c(C(F)(F)F)nn4C)cc(=O)n2c1 (centres unmarked) [Compound 724] | 100 to 500 | A (A denotes >20-fold) |
| Cc1cc(C(C)Nc2ccccc2C(=O)O)c2nc(-c3ccc4c(c3)c(C)nn4C)cc(=O)n2c1 (centres unmarked) [Compound 725] | < 100 | A (A denotes >20-fold) |
| Cc1cc(C(C)Nc2ccccc2C(=O)O)c2nc(-c3ccc4c(c3)CCN4CC(N)=O)cc(=O)n2c1 (centres unmarked) [Compound 726] |  | B (B denotes 20-fold≥value>5-fold) |
| Cc1cc([C@@H](C)Nc2ccccc2C(=O)O)c2nc(N3CCC(C)(C)CC3)cc(=O)n2c1 [Compound 727] | > 2000 | C (C denotes ≤5-fold) |
| Cc1cc([C@H](C)Nc2ccccc2C(=O)O)c2nc(N3CCC(C)(C)CC3)cc(=O)n2c1 [Compound 728] | > 2000 | C (C denotes ≤5-fold) |
| Cc1cc(C(C)Nc2ccccc2S(N)(=O)=O)c2nc(N3C[C@@H](C)O[C@@H](C)C3)cc(=O)n2c1 (some centres unmarked) [Compound 729] | 100 to 500 | A (A denotes >20-fold) |
| Cc1cc([C@H](C)Nc2ccccc2S(N)(=O)=O)c2nc(N3C[C@@H](C)O[C@@H](C)C3)cc(=O)n2c1 [Compound 731] | > 2000 | C (C denotes ≤5-fold) |
| Cc1cc([C@@H](C)Nc2ccccc2C(=O)O)c2nc(-c3cc4c(N)nn(C)c4cc3C)c(C)c(=O)n2c1 [Compound 732] |  | C (C denotes ≤5-fold) |
| Cc1cc([C@H](C)Nc2ccccc2C(=O)O)c2nc(-c3cc4c(N)nn(C)c4cc3C)c(C)c(=O)n2c1 [Compound 733] |  | C (C denotes ≤5-fold) |
| Cc1cc(C(C)CNc2ccccc2C(=O)O)c2nc(N3CCOCC3)cc(=O)n2c1 (centres unmarked) [Compound 735] |  | C (C denotes ≤5-fold) |
| Cc1cc(C(C)Nc2ccccc2C(=O)O)c2nc(-c3ccc4c(c3)c(C3CC3)nn4C)cc(=O)n2c1 (centres unmarked) [Compound 736] | 100 to 500 | A (A denotes >20-fold) |
| Cc1cc([C@@H](C)Nc2ccccc2C(=O)O)c2nc(-c3ccc4c(c3)c(C(F)(F)F)nn4C)cc(=O)n2c1 [Compound 737] | 100 to 500 | A (A denotes >20-fold) |
| Cc1cc([C@H](C)Nc2ccccc2C(=O)O)c2nc(-c3ccc4c(c3)c(C(F)(F)F)nn4C)cc(=O)n2c1 [Compound 738] | > 2000 | C (C denotes ≤5-fold) |
| Cc1cc([C@H](C)Nc2ccccc2C(=O)O)c2nc(-c3ccc4c(ccn4CC(N)=O)c3)cc(=O)n2c1 [Compound 741] |  | C (C denotes ≤5-fold) |
| Cc1cc(C(C)Nc2cccc3[nH]nnc23)c2nc(N3CCOCC3)cc(=O)n2c1 (centres unmarked) [Compound 743] |  | A (A denotes >20-fold) |
| Cc1cc([C@@H](C)Nc2cccc3[nH]nnc23)c2nc(N3CCOCC3)cc(=O)n2c1 [Compound 744] |  | B (B denotes 20-fold≥value>5-fold) |
| Cc1cc([C@H](C)Nc2cccc3[nH]nnc23)c2nc(N3CCOCC3)cc(=O)n2c1 [Compound 745] |  | C (C denotes ≤5-fold) |
| Cc1cc([C@@H](C)Nc2ccccc2C(=O)O)c2nc(-c3ccc4c(c3)c(C3CC3)nn4C)cc(=O)n2c1 [Compound 748] | < 100 | A (A denotes >20-fold) |
| Cc1cc([C@H](C)Nc2ccccc2C(=O)O)c2nc(-c3ccc4c(c3)c(C3CC3)nn4C)cc(=O)n2c1 [Compound 749] | > 2000 | C (C denotes ≤5-fold) |
| CC1=NC(C)c2cc(-c3cc(=O)n4cc(C)cc([C@@H](C)Nc5ccccc5C(=O)O)c4n3)ccc21 (some centres unmarked) [Compound 752] |  | C (C denotes ≤5-fold) |
